Converted amounts (≈) assume the structure as drawn. Structures can show the parent of a compound that is named as a salt. Where a SMILES comes first, the peptide text is derived from it. [ ]: non-standard residue; d: D form. The star is where a group is joined. Gly(cPent) = N[CH](C(=O)O)C1CCCC1; Cbz = O=C(OCc1ccccc1)*; Abu = CC[CH](N)C(=O)O
How the values were obtained:
[1] = Solubility of inhibitors in Locke's buffer; format: physicochemical; conditions: Locke's buffer pH 7.4; sulfonic acids: buffer added to weighed sample at 20° C.; control aldehydes: by UV absorption of filtrate
[2] = biological target: T1, Recombinant human calpain I (Homo sapiens, UniProt P07384); test: Inhibition of calpain I activity (Succ-Leu-Tyr-MNA hydrolysis); format: biochemical; conditions: 0.2 mM Succ-Leu-Tyr-MNA, pH 7.5
T1 construct: made in house
T1 sequence (P07384 1-714): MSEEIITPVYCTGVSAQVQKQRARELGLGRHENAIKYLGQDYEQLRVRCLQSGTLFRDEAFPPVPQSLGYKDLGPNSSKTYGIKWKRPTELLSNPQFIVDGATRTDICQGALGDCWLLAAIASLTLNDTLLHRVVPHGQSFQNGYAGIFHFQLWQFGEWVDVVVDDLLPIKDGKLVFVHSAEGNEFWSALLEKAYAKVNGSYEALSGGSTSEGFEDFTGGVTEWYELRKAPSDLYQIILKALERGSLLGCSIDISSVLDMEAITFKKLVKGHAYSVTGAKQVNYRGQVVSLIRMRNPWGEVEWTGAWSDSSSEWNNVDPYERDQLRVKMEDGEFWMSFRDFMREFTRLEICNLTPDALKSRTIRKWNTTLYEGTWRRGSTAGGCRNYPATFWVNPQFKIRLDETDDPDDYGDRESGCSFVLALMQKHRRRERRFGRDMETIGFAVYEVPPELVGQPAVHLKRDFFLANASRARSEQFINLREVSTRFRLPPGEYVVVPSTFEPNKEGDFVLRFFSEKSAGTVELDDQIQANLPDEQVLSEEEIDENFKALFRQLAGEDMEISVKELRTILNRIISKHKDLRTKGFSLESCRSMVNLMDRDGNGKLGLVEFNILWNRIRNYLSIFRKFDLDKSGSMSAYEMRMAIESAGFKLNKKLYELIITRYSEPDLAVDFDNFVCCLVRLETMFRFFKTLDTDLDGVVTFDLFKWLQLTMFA
T1 sequence (P04632 1-268 partner): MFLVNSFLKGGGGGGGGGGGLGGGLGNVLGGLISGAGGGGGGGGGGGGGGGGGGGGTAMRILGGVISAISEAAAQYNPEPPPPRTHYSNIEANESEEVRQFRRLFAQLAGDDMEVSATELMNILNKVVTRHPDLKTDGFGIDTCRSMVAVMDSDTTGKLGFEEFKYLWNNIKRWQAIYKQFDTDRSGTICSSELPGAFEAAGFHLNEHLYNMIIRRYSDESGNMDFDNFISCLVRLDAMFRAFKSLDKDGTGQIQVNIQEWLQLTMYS
Method: To evaluate inhibitory activity, stock solutions (40 concentrated) of each compound to be tested were prepared in 100% anhydrous DMSO and 5 μl of each inhibitor preparation were aliquoted into each of three wells of a 96-well plate. Recombinant human calpain I, prepared by the of Meyer et al. (Biochem. J. 1996, 314: 511-519), was into assay buffer (i.e., 50 mM Tris, 50 mM NaCl, 1 mM EDTA, 1 mM EGTA, and 5 mM β-mercaptoethanol, pH 7.5, including 0.2 mM Succ-Leu-Tyr-MNA), and 175 μl was aliquoted into the same wells containing the independent inhibitor stocks as well as to positive control wells which contained 5 μl DMSO, but no compound. To start the reaction, 20 μl of 50 mM CaCl2 in assay buffer was added to all wells of the plate, excepting three, which were used as background signal baseline controls. Substrate hydrolysis was monitored every 5 minutes for a total of 30 minutes. Substrate hydrolysis in the absence of inhibitor was linear for up to 15 minutes.
Inhibition of calpain I activity was calculated as the percent decrease in the rate of substrate hydrolysis in the presence of inhibitor relative to the rate in its absence. Comparison between the inhibited and control rates was made within the linear range for substrate hydrolysis. The IC50 values for inhibitors (concentration yielding 50% inhibition) were determined from the percent decrease in rates of substrate hydrolysis in the presence of five to seven different concentrations of the test compound. The results were plotted as percent inhibition versus log inhibitor concentration, and the IC50 was calculated by fitting the data to the four-parameter logistic equation shown below using the program GraphPad Prism (GraphPad Software, Inc., San Diego, Calif.).
In the equation above, the parameters a, b, c, and d are defined as follows: a is % inhibition in the absence of inhibitor, b is the slope, c is the IC50, and d is the % inhibition at an infinite concentration of inhibitor.

Compound | Solubility [1] [µg/mL] | IC50 [2] [nM]
O=CC(Cc1ccccc1)NC(=O)C(NC(=O)OCc1ccccc1)C1CCCC1 (stereo not drawn) [Cbz-CyclopentylGly-Phe-H] (Cbz-[Gly(cPent)]-Phe-aldehyde; configuration not given here) | 80 (≈ 196 µM) | 
CCC(C=O)NC(=O)C(CC(C)C)NC(=O)OCc1ccccc1 (stereo not drawn) [Cbz-Leu-Abu-H] (Cbz-Leu-[Abu]-aldehyde; configuration not given here) | 210 (≈ 628 µM) | 
CC(C)[C@H](NC(=O)OCc1ccccc1)C(=O)N[C@H](C=O)Cc1ccccc1 [Cbz-Val-Phe-H] (Cbz-Val-Phe-aldehyde) | 180 (≈ 471 µM) | 
CC(C)[C@H](NC(=O)OCc1ccccc1)C(=O)NC(Cc1ccccc1)C(O)S(=O)(=O)O (stereo partly drawn) [Compound 1, Benzyloxycarbonyl-L-valyl-2-amino-1-hydroxy-3-phenylpropanesulfonic acid sodium Salt] |  | 10
O=C(N[C@H](C(=O)NC(Cc1ccccc1)C(O)S(=O)(=O)O)C1CCCC1)OCc1ccccc1 (stereo partly drawn) [Compound 3, Benzyloxycarbonyl-L-cyclopentylglycyl-2-amino-1-hydroxy-3-phenylpropanesulfonic acid sodium Salt] |  | 15
CC(C)C[C@H](NC(=O)N1CCc2ccccc2C1)C(=O)N[C@H](C=O)Cc1ccccc1 [THIQ-2-CO-Leu-Phe-H] | 180 (≈ 427 µM) | 
Tetrahydroisoquinoline-2-carbonyl-L-leucyl-2-amino-1-hydroxy-3-phenylpropanesulfonic acid sodium Salt [Compound 2] |  | 32
